Data set [1] in a line: Superoxide radical scavenging activity (non-enzymatic, PMS/NADH, NBT method). Particulars: 100 μM. The text has this: Superoxide anion radical is an active form of oxygen, and it is the product of the one-electron reduction of […] oxygen. Herein, superoxide radicals were formed by mixing phenazine methosulfate (PMS) with NADH and air-oxygen. The production of radicals was estimated with the nitroblue-tetrazolium method (NBT). From the tested pyrroles, Compounds 2i and 2iii were equipotent (57%) scavengers. […] In contrast, the dipole moment appeared to be important. The values of the dipole, as calculated by the program Spartan v.5.1.3.
The superoxide anion radicals were produced non-enzymatically by mixing phenazine methosulfate (PMS) with NADH and air-oxygen. The production of superoxide radicals was estimated with the nitroblue-tetrazolium (NBT) method with 3 μΜ PMS, 78 μΜ NADH and 25 μΜ NBT in 19 μΜ phosphate buffer pH 7.4. The absorbance was measured at 560 nm at room temperature. The tested compounds were added in the mixture 2 min before the addition of NADH [52].

A short description of data set [2]: Inhibition of heme-dependent lipid peroxidation of linoleic acid (TBA method). The note with it: pH 7.4, 37 °C; read-out: LP IC50 (inhibition of heme-dependent lipid peroxidation of linoleic acid). On the procedure: The anti-lipid peroxidation activity was determined through the inhibition of heme-dependent lipid peroxidation. The peroxidation of sodium linoleate is induced from a mixture of heme and hydrogen peroxide, which produces free radicals from the side chains of amino acids. The assay is performed at pH 7.4 with a phosphate buffer, and the products of peroxidation are identified with the thiobarbituric acid method (TBA). In particular, malonic dialdehyde, a final product of lipid peroxidation, reacts with TBA and forms a colored product, whose absorbance is measured at 535 nm. […] Compounds 2ii and 2vi with low Clog P values are weak inhibitors of lipid peroxidation. It seems that the increase of volume of Ar^1, measured as molar refractivity MR (Ar^1), enhances IC50 values and reduces the inhibitory activity (2i and 2iii; and 2ii, 2iv and 2vi). For derivatives 2iv and 2v, the presence of an electron-acceptor, e.g., a chloro-substituent on the phenyl ring (Ar^2), diminishes the anti-lipid peroxidation activity.
Firstly, 0.4 mL of heme (50 μΜ), 0.25 mL of sodium linoleate (400 μΜ), 0.1 mL of the solutions of the tested compounds (concentrations varying from 10–100 μΜ in DMSO) and 0.25 mL of H2O2 (500 μΜ) were incubated for 10 min in 37 °C in a phosphate buffer (KH2PO4–KOH 50 mM, pH 7.4). The peroxidation products were identified with the reaction of thiobarbituric acid, by adding successively 0.5 mL of 40% trichloroacetic acid (TCA) and 0.5 mL of 2% of thiobarbituric acid (TBA). The addition was followed by stirring and heating at 90 °C for 20 min, and then, 1 mL of acetic acid and 1 mL of chloroform were added and the absorbance measured at 535 nm. IC50 values were determined.

A further data set concerns the target T1, interleukin-6 (IL-6) (Mus musculus, UniProt P08505).
T1 construct: purchased Cayman Item No. 583371
T1 sequence (P08505 25-211): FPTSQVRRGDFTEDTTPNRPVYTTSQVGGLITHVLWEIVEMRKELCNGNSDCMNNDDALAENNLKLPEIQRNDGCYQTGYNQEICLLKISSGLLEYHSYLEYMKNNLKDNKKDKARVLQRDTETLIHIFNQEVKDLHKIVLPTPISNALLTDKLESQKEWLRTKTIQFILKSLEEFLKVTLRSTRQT
The data set is described as follows: Inhibition of interleukin-6 (immunometric double antibody sandwich EIA). The note with it: compound 10 μM. The class given is biochemical. As to the method:
The assay used for the inhibition of IL-6 is based on an immunometric double antibody method (sandwich technique). […] Both compounds gave satisfactory biological responses, both in high and in low concentrations of IL-6 (Table 8).
The method was based on an immunometric double antibody sandwich technique. Each well of the microwell plate was coated with a specific for mouse IL-6 rat monoclonal antibody. Tested compounds at 10 μΜ and standards were incubated in the wells, and after rinsing, a second monoclonal antibody was added, which was conjugated with biotin and detected the captured IL-6. The recognition of double antibody sandwiches was done with HRP-conjugated streptavidin. The concentration of IL-6 was determined by measuring the enzymatic activity of HRP using the chromogenic substrate TMB (3,3′,5,5′-tetramethylbenzidine). The absorbance of the reaction product was measured at 450 nm, and the intensity of the color was directly proportional to the amount of bound HRP-streptavidin conjugate, which was proportional to the concentration of IL-6.

The target of the next data set is T2, trypsin (Bos taurus, UniProt P00760).
T2 construct: purchased Sigma Chemical, Co. (St. Louis, MO, USA); host or cells: bovine pancreas
T2 sequence (P00760 24-246): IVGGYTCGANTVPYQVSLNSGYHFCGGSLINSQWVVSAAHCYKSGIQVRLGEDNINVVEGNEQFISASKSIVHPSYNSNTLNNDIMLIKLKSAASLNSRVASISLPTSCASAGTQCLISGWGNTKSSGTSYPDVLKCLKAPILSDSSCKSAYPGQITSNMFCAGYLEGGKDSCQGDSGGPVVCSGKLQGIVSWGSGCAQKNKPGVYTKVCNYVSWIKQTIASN
The data set is described as follows: Inhibition of the proteolytic activity of trypsin. It is filed as biochemical. Particulars: bovine albumin substrate, pH 7.6; read-out: TP IC50 (inhibition of trypsin). The source says:
Trypsin is an enzyme with an active role in inflammation. Thus, we studied the anti-proteolytic ability of the pyrrole derivatives, using salicylic acid as a reference compound. […] Comparing Compounds 2iv and 2v, the insertion of an electron-acceptor substituent (Cl) on the phenyl ring (substituent Ar^2) and the simultaneous increase of the volume of substituent Ar^2 (expressed as molar refractivity) led to an enhancement of the anti-proteolytic activity.
Carrageenan, type K, was commercially available. Cycloxygenase-2 (COX-2) and interleukin-6 (IL-6) EIA Kit, Item No. 583371 were purchased from Cayman. Trolox was obtained from Aldrich Chemical Co. (Milwaukee, WI, USA). All starting materials were obtained from commercial sources, and they were used without further purification.
The tested compounds (concentrations varying from 10 μΜ–100 μΜ in DMSO) were dissolved in a phosphate buffer (0.1 M K2HPO4–NaH2PO4·2H2O, pH = 7.6), and 0.2 mL of trypsin 0.075 mg/mL were added. The mixture was incubated at room temperature for 20 min, and then, 1 mL of bovine albumin (6 g/100 mL) was added. The mixture was incubated at 37 °C for 30 min. The reaction was stopped with the addition of 1 mL of trichloroacetic acid (5% w/w) Separation of the phases followed, with measurement of the supernatants at 280 nm at room temperature. IC50 values were determined.

In a further data set the target is COX-1 (Homo sapiens, UniProt P23219). The data set is described as follows: Inhibition of COX-1 (preliminary results). It is filed as biochemical. The text has this:
More experiments are in progress to delineate accurately the inhibition profile.

Here are results for four compounds from PMC6332026, “Synthesis and Pharmacochemistry of New Pleiotropic Pyrrolyl Derivatives” (Molecules, 2015).

Sequence of COX-1 (P23219 24-599): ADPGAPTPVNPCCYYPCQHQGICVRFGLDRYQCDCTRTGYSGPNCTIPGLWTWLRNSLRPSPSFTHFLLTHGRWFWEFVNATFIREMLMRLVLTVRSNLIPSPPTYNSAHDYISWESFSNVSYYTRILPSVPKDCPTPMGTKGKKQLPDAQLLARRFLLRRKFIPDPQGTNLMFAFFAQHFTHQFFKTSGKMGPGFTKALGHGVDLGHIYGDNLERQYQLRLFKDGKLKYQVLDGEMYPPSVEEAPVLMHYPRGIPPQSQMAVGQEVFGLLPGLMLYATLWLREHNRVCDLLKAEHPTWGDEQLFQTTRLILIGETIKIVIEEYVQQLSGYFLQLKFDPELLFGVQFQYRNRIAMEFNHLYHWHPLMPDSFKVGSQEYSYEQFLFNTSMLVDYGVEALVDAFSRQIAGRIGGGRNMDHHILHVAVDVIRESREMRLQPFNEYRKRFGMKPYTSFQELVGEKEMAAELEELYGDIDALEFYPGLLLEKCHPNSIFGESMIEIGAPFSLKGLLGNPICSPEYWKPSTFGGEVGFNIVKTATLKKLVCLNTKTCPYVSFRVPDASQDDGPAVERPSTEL

Take `O=C(c1cccs1)c1c[nH]cc1-c1cccc(Oc2ccccc2)c1` [Compound 2i, [4-(3-Phenoxyphenyl)-1H-pyrrol-3-yl](thien-2-yl)methanone]: the melting point (in general, the temperature of the solid-liquid transition) was in the range of 165 to 166 °C. In addition, the “O2^•− % superoxide radical scavenging activity” value in data set [1] amounted to 57%. Besides, in data set [2], the IC50 (in general, the point on the concentration scale where inhibition reaches its midpoint) turned out to be 40 µM. For the same compound, the inhibition (usually the share of the control response that was lost under treatment) at 10 µM on interleukin-6 (IL-6) (IL-6 187.5 pg/mL) turned out to be 99%. The same compound yielded an inhibition at 10 µM at interleukin-6 (IL-6) (IL-6 375.0 pg/mL) of 99%. The compound also came in with an inhibition at 10 µM against interleukin-6 (IL-6) (IL-6 750.0 pg/mL) of 98%. In addition, at 10 µM the inhibition against interleukin-6 (IL-6) (IL-6 1500 pg/mL) was 99%. The half-inhibitory concentration (IC50) at trypsin is 60 µM.

In turn, `O=C(c1cccs1)c1c[nH]cc1-c1ccc(OCc2ccc(Br)cc2)cc1` [Compound 2iii, (4-{4-[(4-Bromobenzyl)oxy]phenyl}-1H-pyrrol-3-yl)(thien-2-yl)methanone] came in with a melting point of 233 to 235 °C. Also, the “O2^•− % superoxide radical scavenging activity” value in data set [1] is 57%. In addition, the IC50 in data set [2] was determined as 100 µM. On COX-1, this compound had an inhibition at 100 µM of 75%. The IC50 on trypsin is 9 µM.

Turning to `O=C(c1ccccc1)c1c[nH]cc1-c1cccc2ccccc12` [Compound 2iv, [4-(Naphth-1-yl)-1H-pyrrol-3-yl](phenyl)methanone], the melting point was in the range of 270 to 272 °C. In data set [1], the “O2^•− % superoxide radical scavenging activity” value is reported as 76%. Also, in data set [2], the IC50 was 72 µM. For the same compound, the IC50 at trypsin is 65 µM.

The compound `O=C(c1ccc(Cl)cc1)c1c[nH]cc1-c1cccc2ccccc12` [Compound 2v, (4-Chlorophenyl)[4-(naphth-1-yl)-1H-pyrrol-3-yl]methanone] yielded a melting point of 285 to 286 °C. In addition, the “O2^•− % superoxide radical scavenging activity” value in data set [1] was “inactive”. The IC50 in data set [2] amounted to 150 µM. On COX-1, this compound registered an inhibition at 100 µM of 75%. The inhibition at 10 µM at interleukin-6 (IL-6) (IL-6 375.0 pg/mL) was 99%. Further, testing at 10 µM against interleukin-6 (IL-6) (IL-6 750.0 pg/mL) gave an inhibition of 99%. In addition, on interleukin-6 (IL-6) (IL-6 1500 pg/mL), the inhibition at 10 µM was determined as 100%. Moreover, on trypsin, the IC50 came out at 8 µM.
